Source: PubChem BioAssay (NCI)
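1) Cells in 96-well plates. 2) Compound, 48 h, 5 concentrations. 3) Linear interpolation between surrounding doses. 4) Unreached endpoint = highest concentration. At the TGI there is no net growth.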

system: K-562 leukemia; assay: NCI-60 cell line screen, 48 h

SMILES	TGI [µM]
CCOC(=O)COc1ccc(OC)c2c1C(=O)CCC2	> 100
COc1ccc(NC(=O)CSc2nnc(-c3ccc(N=Cc4ccc(Cl)cc4)cc3)o2)cc1	> 100
COc1ccc(C2Oc3ccc(O)cc3[C@@H]2C)cc1OC (some centres not stated)	> 100

system: NCI-H522 lung; assay: NCI-60 cell line screen, 48 h

SMILES	TGI [µM]
COc1ccc(NC(=O)CSc2nnc(-c3ccc(N=Cc4ccc(Cl)cc4)cc3)o2)cc1	96.6
COc1ccc(-c2ccccc2)c(N/N=C2\CCCNC2=O)c1	> 100
COc1ccc(C2Oc3ccc(O)cc3[C@@H]2C)cc1OC (some centres not stated)	> 100

system: SF-268 CNS; assay: NCI-60 cell line screen, 48 h

SMILES	TGI [µM]
COc1ccc(NC(=O)CSc2nnc(-c3ccc(N=Cc4ccc(Cl)cc4)cc3)o2)cc1	> 64.7
COc1ccc(-c2ccccc2)c(N/N=C2\CCCNC2=O)c1	> 100
COc1ccc(C2Oc3ccc(O)cc3[C@@H]2C)cc1OC (some centres not stated)	> 100

system: SK-OV-3 ovarian; assay: NCI-60 cell line screen, 48 h

SMILES	TGI [µM]
CCOC(=O)COc1ccc(OC)c2c1C(=O)CCC2	> 100
COc1ccc(NC(=O)CSc2nnc(-c3ccc(N=Cc4ccc(Cl)cc4)cc3)o2)cc1	> 100
COc1ccc(-c2ccccc2)c(N/N=C2\CCCNC2=O)c1	> 100
COc1ccc(C2Oc3ccc(O)cc3[C@@H]2C)cc1OC (some centres not stated)	> 100

system: NCI-H460 lung; assay: NCI-60 cell line screen, 48 h

SMILES	TGI [µM]
CCOC(=O)COc1ccc(OC)c2c1C(=O)CCC2	> 100
COc1ccc(NC(=O)CSc2nnc(-c3ccc(N=Cc4ccc(Cl)cc4)cc3)o2)cc1	> 100
COc1ccc(-c2ccccc2)c(N/N=C2\CCCNC2=O)c1	> 100
COc1ccc(C2Oc3ccc(O)cc3[C@@H]2C)cc1OC (some centres not stated)	> 100

system: HS 578T breast; assay: NCI-60 cell line screen, 48 h

SMILES	TGI [µM]
COc1ccc(NC(=O)CSc2nnc(-c3ccc(N=Cc4ccc(Cl)cc4)cc3)o2)cc1	> 100

system: HL-60(TB) leukemia; assay: NCI-60 cell line screen, 48 h

SMILES	TGI [µM]
CCOC(=O)COc1ccc(OC)c2c1C(=O)CCC2	> 100
COc1ccc(NC(=O)CSc2nnc(-c3ccc(N=Cc4ccc(Cl)cc4)cc3)o2)cc1	> 48.8
COc1ccc(C2Oc3ccc(O)cc3[C@@H]2C)cc1OC (some centres not stated)	> 100

system: HOP-18 NSCLC; assay: NCI-60 cell line screen, 48 h

SMILES	TGI [µM]
CCOC(=O)COc1ccc(OC)c2c1C(=O)CCC2	> 100
COc1ccc(NC(=O)CSc2nnc(-c3ccc(N=Cc4ccc(Cl)cc4)cc3)o2)cc1	68.1
COc1ccc(-c2ccccc2)c(N/N=C2\CCCNC2=O)c1	> 100
COc1ccc(C2Oc3ccc(O)cc3[C@@H]2C)cc1OC (some centres not stated)	> 100

system: SNB-19 CNS; assay: NCI-60 cell line screen, 48 h

SMILES	TGI [µM]
CCOC(=O)COc1ccc(OC)c2c1C(=O)CCC2	> 100
COc1ccc(NC(=O)CSc2nnc(-c3ccc(N=Cc4ccc(Cl)cc4)cc3)o2)cc1	> 100
COc1ccc(-c2ccccc2)c(N/N=C2\CCCNC2=O)c1	> 100
COc1ccc(C2Oc3ccc(O)cc3[C@@H]2C)cc1OC (some centres not stated)	> 100

system: A498 renal; assay: NCI-60 cell line screen, 48 h

SMILES	TGI [µM]
CCOC(=O)COc1ccc(OC)c2c1C(=O)CCC2	> 100
COc1ccc(NC(=O)CSc2nnc(-c3ccc(N=Cc4ccc(Cl)cc4)cc3)o2)cc1	> 100

system: ACHN renal; assay: NCI-60 cell line screen, 48 h

SMILES	TGI [µM]
CCOC(=O)COc1ccc(OC)c2c1C(=O)CCC2	> 100
COc1ccc(NC(=O)CSc2nnc(-c3ccc(N=Cc4ccc(Cl)cc4)cc3)o2)cc1	> 86.9
COc1ccc(-c2ccccc2)c(N/N=C2\CCCNC2=O)c1	> 100
COc1ccc(C2Oc3ccc(O)cc3[C@@H]2C)cc1OC (some centres not stated)	> 100

system: MALME-3M melanoma; assay: NCI-60 cell line screen, 48 h

SMILES	TGI [µM]
COc1ccc(NC(=O)CSc2nnc(-c3ccc(N=Cc4ccc(Cl)cc4)cc3)o2)cc1	> 100
COc1ccc(-c2ccccc2)c(N/N=C2\CCCNC2=O)c1	> 100
COc1ccc(C2Oc3ccc(O)cc3[C@@H]2C)cc1OC (some centres not stated)	> 100

system: UACC-62 melanoma; assay: NCI-60 cell line screen, 48 h

SMILES	TGI [µM]
CCOC(=O)COc1ccc(OC)c2c1C(=O)CCC2	> 100
COc1ccc(NC(=O)CSc2nnc(-c3ccc(N=Cc4ccc(Cl)cc4)cc3)o2)cc1	> 100
COc1ccc(-c2ccccc2)c(N/N=C2\CCCNC2=O)c1	> 100
COc1ccc(C2Oc3ccc(O)cc3[C@@H]2C)cc1OC (some centres not stated)	> 100

system: UACC-257 melanoma; assay: NCI-60 cell line screen, 48 h

SMILES	TGI [µM]
CCOC(=O)COc1ccc(OC)c2c1C(=O)CCC2	> 100
COc1ccc(NC(=O)CSc2nnc(-c3ccc(N=Cc4ccc(Cl)cc4)cc3)o2)cc1	> 96.7
COc1ccc(-c2ccccc2)c(N/N=C2\CCCNC2=O)c1	> 100
COc1ccc(C2Oc3ccc(O)cc3[C@@H]2C)cc1OC (some centres not stated)	> 100

system: LXFL 529 NSCLC; assay: NCI-60 cell line screen, 48 h

SMILES	TGI [µM]
CCOC(=O)COc1ccc(OC)c2c1C(=O)CCC2	> 100
COc1ccc(NC(=O)CSc2nnc(-c3ccc(N=Cc4ccc(Cl)cc4)cc3)o2)cc1	> 100
COc1ccc(-c2ccccc2)c(N/N=C2\CCCNC2=O)c1	> 100
COc1ccc(C2Oc3ccc(O)cc3[C@@H]2C)cc1OC (some centres not stated)	> 100

system: 786-0 renal; assay: NCI-60 cell line screen, 48 h

SMILES	TGI [µM]
COc1ccc(NC(=O)CSc2nnc(-c3ccc(N=Cc4ccc(Cl)cc4)cc3)o2)cc1	> 100
COc1ccc(-c2ccccc2)c(N/N=C2\CCCNC2=O)c1	> 100
COc1ccc(C2Oc3ccc(O)cc3[C@@H]2C)cc1OC (some centres not stated)	> 100

system: NCI-H23 lung; assay: NCI-60 cell line screen, 48 h

SMILES	TGI [µM]
CCOC(=O)COc1ccc(OC)c2c1C(=O)CCC2	> 100
COc1ccc(NC(=O)CSc2nnc(-c3ccc(N=Cc4ccc(Cl)cc4)cc3)o2)cc1	> 93.5
COc1ccc(-c2ccccc2)c(N/N=C2\CCCNC2=O)c1	> 100
COc1ccc(C2Oc3ccc(O)cc3[C@@H]2C)cc1OC (some centres not stated)	> 100

system: RPMI-8226 leukemia; assay: NCI-60 cell line screen, 48 h

SMILES	TGI [µM]
CCOC(=O)COc1ccc(OC)c2c1C(=O)CCC2	> 100
COc1ccc(NC(=O)CSc2nnc(-c3ccc(N=Cc4ccc(Cl)cc4)cc3)o2)cc1	> 80.7
COc1ccc(-c2ccccc2)c(N/N=C2\CCCNC2=O)c1	> 100
COc1ccc(C2Oc3ccc(O)cc3[C@@H]2C)cc1OC (some centres not stated)	> 100

system: SW-620 colon; assay: NCI-60 cell line screen, 48 h

SMILES	TGI [µM]
CCOC(=O)COc1ccc(OC)c2c1C(=O)CCC2	> 100
COc1ccc(NC(=O)CSc2nnc(-c3ccc(N=Cc4ccc(Cl)cc4)cc3)o2)cc1	> 100
COc1ccc(-c2ccccc2)c(N/N=C2\CCCNC2=O)c1	> 100
COc1ccc(C2Oc3ccc(O)cc3[C@@H]2C)cc1OC (some centres not stated)	> 100

system: MOLT-4 leukemia; assay: NCI-60 cell line screen, 48 h

SMILES	TGI [µM]
CCOC(=O)COc1ccc(OC)c2c1C(=O)CCC2	> 100
COc1ccc(NC(=O)CSc2nnc(-c3ccc(N=Cc4ccc(Cl)cc4)cc3)o2)cc1	> 70.2
COc1ccc(-c2ccccc2)c(N/N=C2\CCCNC2=O)c1	> 100
COc1ccc(C2Oc3ccc(O)cc3[C@@H]2C)cc1OC (some centres not stated)	> 100

system: HCT-15 colon; assay: NCI-60 cell line screen, 48 h

SMILES	TGI [µM]
CCOC(=O)COc1ccc(OC)c2c1C(=O)CCC2	> 100
COc1ccc(NC(=O)CSc2nnc(-c3ccc(N=Cc4ccc(Cl)cc4)cc3)o2)cc1	29.1
COc1ccc(-c2ccccc2)c(N/N=C2\CCCNC2=O)c1	> 100
COc1ccc(C2Oc3ccc(O)cc3[C@@H]2C)cc1OC (some centres not stated)	> 100

system: U251 CNS; assay: NCI-60 cell line screen, 48 h

SMILES	TGI [µM]
CCOC(=O)COc1ccc(OC)c2c1C(=O)CCC2	> 100
COc1ccc(NC(=O)CSc2nnc(-c3ccc(N=Cc4ccc(Cl)cc4)cc3)o2)cc1	> 100
COc1ccc(-c2ccccc2)c(N/N=C2\CCCNC2=O)c1	> 100
COc1ccc(C2Oc3ccc(O)cc3[C@@H]2C)cc1OC (some centres not stated)	> 100

system: MDA-MB-435; assay: NCI-60 cell line screen, 48 h

SMILES	TGI [µM]
COc1ccc(NC(=O)CSc2nnc(-c3ccc(N=Cc4ccc(Cl)cc4)cc3)o2)cc1	> 100

system: HOP-92 NSCLC; assay: NCI-60 cell line screen, 48 h

SMILES	TGI [µM]
COc1ccc(NC(=O)CSc2nnc(-c3ccc(N=Cc4ccc(Cl)cc4)cc3)o2)cc1	71.4
COc1ccc(-c2ccccc2)c(N/N=C2\CCCNC2=O)c1	> 100
COc1ccc(C2Oc3ccc(O)cc3[C@@H]2C)cc1OC (some centres not stated)	> 100

system: SF-295 CNS; assay: NCI-60 cell line screen, 48 h

SMILES	TGI [µM]
CCOC(=O)COc1ccc(OC)c2c1C(=O)CCC2	> 100
COc1ccc(NC(=O)CSc2nnc(-c3ccc(N=Cc4ccc(Cl)cc4)cc3)o2)cc1	> 100
COc1ccc(-c2ccccc2)c(N/N=C2\CCCNC2=O)c1	> 100
COc1ccc(C2Oc3ccc(O)cc3[C@@H]2C)cc1OC (some centres not stated)	> 100

system: XF 498 CNS; assay: NCI-60 cell line screen, 48 h

SMILES	TGI [µM]
CCOC(=O)COc1ccc(OC)c2c1C(=O)CCC2	> 100
COc1ccc(NC(=O)CSc2nnc(-c3ccc(N=Cc4ccc(Cl)cc4)cc3)o2)cc1	59.2
COc1ccc(-c2ccccc2)c(N/N=C2\CCCNC2=O)c1	87.7
COc1ccc(C2Oc3ccc(O)cc3[C@@H]2C)cc1OC (some centres not stated)	> 100

system: SK-MEL-28 melanoma; assay: NCI-60 cell line screen, 48 h

SMILES	TGI [µM]
CCOC(=O)COc1ccc(OC)c2c1C(=O)CCC2	> 100
COc1ccc(NC(=O)CSc2nnc(-c3ccc(N=Cc4ccc(Cl)cc4)cc3)o2)cc1	> 100
COc1ccc(-c2ccccc2)c(N/N=C2\CCCNC2=O)c1	> 100
COc1ccc(C2Oc3ccc(O)cc3[C@@H]2C)cc1OC (some centres not stated)	> 100

system: COLO 205 colon; assay: NCI-60 cell line screen, 48 h

SMILES	TGI [µM]
CCOC(=O)COc1ccc(OC)c2c1C(=O)CCC2	> 100
COc1ccc(NC(=O)CSc2nnc(-c3ccc(N=Cc4ccc(Cl)cc4)cc3)o2)cc1	44.9
COc1ccc(-c2ccccc2)c(N/N=C2\CCCNC2=O)c1	> 100
COc1ccc(C2Oc3ccc(O)cc3[C@@H]2C)cc1OC (some centres not stated)	> 100

system: DMS 114 small cell lung; assay: NCI-60 cell line screen, 48 h

SMILES	TGI [µM]
CCOC(=O)COc1ccc(OC)c2c1C(=O)CCC2	> 100
COc1ccc(NC(=O)CSc2nnc(-c3ccc(N=Cc4ccc(Cl)cc4)cc3)o2)cc1	80.1
COc1ccc(-c2ccccc2)c(N/N=C2\CCCNC2=O)c1	> 100
COc1ccc(C2Oc3ccc(O)cc3[C@@H]2C)cc1OC (some centres not stated)	> 100

system: IGROV1 ovarian; assay: NCI-60 cell line screen, 48 h

SMILES	TGI [µM]
CCOC(=O)COc1ccc(OC)c2c1C(=O)CCC2	> 100
COc1ccc(NC(=O)CSc2nnc(-c3ccc(N=Cc4ccc(Cl)cc4)cc3)o2)cc1	> 100
COc1ccc(-c2ccccc2)c(N/N=C2\CCCNC2=O)c1	> 100
COc1ccc(C2Oc3ccc(O)cc3[C@@H]2C)cc1OC (some centres not stated)	> 100

system: T-47D breast; assay: NCI-60 cell line screen, 48 h

SMILES	TGI [µM]
COc1ccc(NC(=O)CSc2nnc(-c3ccc(N=Cc4ccc(Cl)cc4)cc3)o2)cc1	> 100

system: OVCAR-3 ovarian; assay: NCI-60 cell line screen, 48 h

SMILES	TGI [µM]
CCOC(=O)COc1ccc(OC)c2c1C(=O)CCC2	> 100
